{
  "source": "patent US4960815A",
  "about": "“Isotopically-labeled polycyclic amine derivatives” (Warner-Lambert Company, priority 1990, dated 1990)",
  "target": "PCP receptors",
  "assay": "Tritiated TCP binding, designated RBS1",
  "method": "Tritiated TCP binding, designated RBS1, was carried out essentially as described in J Pharmacol Exp Ther, 238, 739-748 (1986).",
  "data": [
    {"smiles": "c1csc(C2(N3CCCCC3)CCCCC2)c1", "note": "[TCP, 1-[1-(2-thienyl)cyclohexyl]piperidine]", "values": [
      {"measurement": "IC50", "result": 9, "unit": "nM"}
    ]}
  ]
}
